Like-named read-outs stand apart in the source and are kept apart here.
Key:
[1] = target: T1, Ba/F3-FL-TYK2-P760L cells (Homo sapiens, UniProt P29597, P760L, cells depend on it); assay: Anti-proliferative assay, Ba/F3-FL-TYK2-P760L cells (Cell-Titer Glo); assay type: cell-based; conditions: 72 h, read-out: BaF3-FL-T2P760L IC50
T1 construct: BaF3-FL-T2P760L (nM)
Procedure, shortened: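 Ba/F3 cells made IL-3-independent by TEL-fused or full-length mutant JAK-family kinases, seeded at 2000/well and dosed after 24 h with 9 three-fold dilutions topping at 20 μM. Viability after 72 h at 37 °C, 5% CO2 by Cell-Titer Glo ATP luminescence.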

[2] = Plasma protein binding by equilibrium dialysis; assay type: in vitro ADME; conditions: human plasma, equilibrium dialysis 5 hours at 37° C.; read-out: % Bound (human) (converted)
Method: Plasma Protein Binding by Equilibrium Dialysis
Aliquots of test compound stock solution and warfarin stock solution were spiked into plasma to give the matrix solutions with theoretical concentrations of test compound at 0.2 and 2 μM or warfarin at 2 μM. Immediately transfer 50 μL of the spiked plasma solution suspension to a 96-well plate to act as T=0 control sample. Assemble the dialysis set up following the manufacturer's instructions. Load cells with 150 μL of plasma sample and dialyzed against equal volume of dialysis buffer (PBS). The assay is performed in duplicate. Cover the unit with gas permeable lid and incubate for 5 hours at 37° C. at 100 rpm in a constant temperature shaking box. At the end of incubation, remove lid and pipette 50 μL of post-dialysis samples from both buffer and plasma solution chambers into separated 96-well plate for analysis, respectively. Add 50 μL of plasma solution to the buffer samples, and an equal volume of PBS to the collected plasma solution samples. Shake the plate at 1000 rpm for 2 minutes and add 600 μL of 50% ACN/MeOH containing an appropriate internal standard (IS) to precipitate protein and release compound. Vortex at 1000 rpm for 10 minutes. Centrifuge for 10 minutes at 4000 rpm. Then transfer 75 μL of the supernatant to new 96-well plates for analysis. Add 150 μL of distilled water to each sample and mix for analysis by LC-MS/MS.
The free rate (% Unbound), binding rate (% Bound), and recovery rate (% Recovery) of the compound are calculated as follows: […]

TYK2-JH2 domain = target: T2, TYK2-JH2 domain (Homo sapiens, UniProt P29597); assay: Binding activity test for JH2 domain of TYK2 (Tb-antibody/tracer FRET); conditions: for JAK1/TYK2 selectivity: ratio JAK1-JH2 IC50 / TYK2-JH2 IC50
T2 construct: IC50 on JH2 domain activity (nM)
Procedure, shortened: (§1)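 Compounds tested as 11-point 3-fold serial dilutions against the JH2 domain in a Tb-antibody/tracer FRET binding format. Plates incubated 60 min at 25° C, then overnight at 4° C, before FRET reading.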

[3] = Microsomal metabolic stability assay; assay type: in vitro ADME; conditions: pH 7.4, 0.5 mg/mL protein, 1 μM compound
Procedure, shortened: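 Test article at 1 μM with 0.5 mg/mL microsomal protein and 2 mM NADPH, in 100 mM potassium phosphate pH 7.4 with 1.0 mM EDTA at 37 °C. Sampled at 0–45 min and quantified by LC/MS/MS. T1/2 from the slope of ln % remaining vs time.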

[4] = Hepatocytes metabolic stability assay; assay type: in vitro ADME; conditions: cryopreserved hepatocytes, human hepatocytes, 1.0×10^6 cells/mL; for half-life at 1 μM: read-out: Human hepatocyte stability T1/2
Method: Hepatocytes Metabolic Stability Assay
The vials of cryopreserved hepatocytes were removed from the liquid nitrogen container and immediately immersed in a 37° C. water bath for approximately 2 min. The melted ice pellets were transferred into tubes containing 50 mL of pre-warmed thawing medium and mixed well by gently inverting the tubes, and then centrifuged at 500 rpm for 3 minutes at room temperature. The supernatants were discarded, and cell pellets were re-suspended by adding appropriate volumes of pre-warmed incubation medium. The cells viability of each species was determined using Trypan Blue exclusion. Add 50 μL of pre-warmed 2× dosing solution to the wells designated for different time points. Then 50 μL of cells suspension (2×10^6 cells/mL) were added into appropriate wells at corresponding time points of T15, T30, T60, T120. Start timing and put the plate in an incubator at 37° C. For TO sample, add 300 μL of ACN containing internal standard to the wells, mix gently, then add 50 μL of pre-warmed hepatocytes solution (2×10^6 cells/mL). The concentration of test compound was 1 μM and 1.0×10^6 cells/mL in the final incubation. At each corresponding time point, test and control compounds reaction samples were stopped by adding 300 μL acetonitrile containing internal standard. All sample plates were thoroughly mixed and centrifuged at 5000×g for 15 minutes. The supernatants were diluted at ratio of 1:1 with ultra-pure water for test and positive controls. Then submitted for LC-MS/MS analysis.
The analyte/internal standard peak area ratios were converted to percentage remaining with the following equation: […]
The in vitro elimination constant, k of test compounds and control compounds were calculated from a log linear plot of % Remaining versus time, then the half-life (T1/2), the estimation of the in vitro hepatic intrinsic clearance (CLint) values were calculated from substrate disappearance rate in hepatocytes incubation: […]

pSTAT1 = assay: Phosphorylation inhibition of STAT in human whole blood, IFN-alpha stimulated (flow cytometry); assay type: cell-based; conditions: 20 min; human whole blood, IFN-alpha 20 mins, CD3 cells; read-out: IC50 on pSTAT1 inhibition in h WB
Method: Phosphorylation Inhibition of STAT in Human PBMC and Human Whole Blood Testing:
The inhibitory potential of test articles in human PBMC and human whole blood assay was evaluated by the method of flow cytometry.
IFN-alpha will activate JAK1 and TYK2 kinase in T cells by binding to IFN receptors, and then lead to phosphorylation of STAT1 and STAT2. The phosphorylated STAT1 enter nuclear and promote transcription and expression of IFN-gamma. To evaluate the efficacy of TYK2i in T cells, freshly prepared human PBMC or freshly collected human whole blood will be stimulated with certain unit of human IFN-alpha (Universal Type I IFN(1MU), R&D, 11200-2) for 20 mins in incubator. After stimulation, fix cells with Phosflow™ Fix Buffer I (BD, 557870), and then collect fixed cells by centrifugation (500 g, 8 min). Wash cells once with pre-cooled PBS, and then permeabilize cells with cold Perm Buffer III buffer (BD, 558050) for 45 mins on ice. Collect cells by centrifugation (600 g, 8 min) and washed twice with cold PBS. Stain cells with anti-human CD3 (FITC Mouse Anti-Human CD3, BD, 555332) and anti-pSTAT1_Y701(Alexa Fluor 647 Mouse Anti-Stat1 (pY701), BD, 612597) antibodies. Detect pSTAT1 by flow cytometry (CytoFlex S) and analyze data with FlowJo and GraphPad Prism 8 software. IC50 values of test articles were determined using 4-parameter logistic equation.

JAK1-JH2 domain = target: T3, JAK1-JH2 domain (Homo sapiens, UniProt P23458); assay: Binding activity test for JH2 domain of JAK1 (Tb-antibody/tracer FRET)
T3 construct: IC50 on JH2 domain activity (nM)
Procedure, shortened: as §1

[5] = human liver microsomes, read-out: Human LM Clint
[6] = human liver microsomes, read-out: Human LM T½
[7] = dog liver microsomes, read-out: Dog LM Clint
[8] = dog liver microsomes, read-out: Dog LM T½
[9] = rat liver microsomes, read-out: Rat LM Clint
[10] = rat liver microsomes, read-out: Rat LM T½

T3 sequence (P23458 583-855 limits assumed): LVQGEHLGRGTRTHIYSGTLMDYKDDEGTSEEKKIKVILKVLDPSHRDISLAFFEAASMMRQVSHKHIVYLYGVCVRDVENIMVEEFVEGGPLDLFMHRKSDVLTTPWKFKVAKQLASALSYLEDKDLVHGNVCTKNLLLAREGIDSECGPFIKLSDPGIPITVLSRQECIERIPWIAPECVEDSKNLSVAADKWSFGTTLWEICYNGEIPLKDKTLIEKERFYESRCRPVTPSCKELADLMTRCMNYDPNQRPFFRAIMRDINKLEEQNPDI
T2 sequence (P29597 589-875 limits assumed): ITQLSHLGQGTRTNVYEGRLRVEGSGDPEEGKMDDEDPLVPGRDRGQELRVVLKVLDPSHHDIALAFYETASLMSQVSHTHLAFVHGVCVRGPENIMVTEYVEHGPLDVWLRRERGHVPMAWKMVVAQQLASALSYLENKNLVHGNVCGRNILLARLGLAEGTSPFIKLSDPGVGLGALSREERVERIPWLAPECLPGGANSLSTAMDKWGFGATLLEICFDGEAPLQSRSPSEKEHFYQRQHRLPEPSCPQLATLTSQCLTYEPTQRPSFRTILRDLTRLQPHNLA
T1 sequence (P29597 whole entry P760L): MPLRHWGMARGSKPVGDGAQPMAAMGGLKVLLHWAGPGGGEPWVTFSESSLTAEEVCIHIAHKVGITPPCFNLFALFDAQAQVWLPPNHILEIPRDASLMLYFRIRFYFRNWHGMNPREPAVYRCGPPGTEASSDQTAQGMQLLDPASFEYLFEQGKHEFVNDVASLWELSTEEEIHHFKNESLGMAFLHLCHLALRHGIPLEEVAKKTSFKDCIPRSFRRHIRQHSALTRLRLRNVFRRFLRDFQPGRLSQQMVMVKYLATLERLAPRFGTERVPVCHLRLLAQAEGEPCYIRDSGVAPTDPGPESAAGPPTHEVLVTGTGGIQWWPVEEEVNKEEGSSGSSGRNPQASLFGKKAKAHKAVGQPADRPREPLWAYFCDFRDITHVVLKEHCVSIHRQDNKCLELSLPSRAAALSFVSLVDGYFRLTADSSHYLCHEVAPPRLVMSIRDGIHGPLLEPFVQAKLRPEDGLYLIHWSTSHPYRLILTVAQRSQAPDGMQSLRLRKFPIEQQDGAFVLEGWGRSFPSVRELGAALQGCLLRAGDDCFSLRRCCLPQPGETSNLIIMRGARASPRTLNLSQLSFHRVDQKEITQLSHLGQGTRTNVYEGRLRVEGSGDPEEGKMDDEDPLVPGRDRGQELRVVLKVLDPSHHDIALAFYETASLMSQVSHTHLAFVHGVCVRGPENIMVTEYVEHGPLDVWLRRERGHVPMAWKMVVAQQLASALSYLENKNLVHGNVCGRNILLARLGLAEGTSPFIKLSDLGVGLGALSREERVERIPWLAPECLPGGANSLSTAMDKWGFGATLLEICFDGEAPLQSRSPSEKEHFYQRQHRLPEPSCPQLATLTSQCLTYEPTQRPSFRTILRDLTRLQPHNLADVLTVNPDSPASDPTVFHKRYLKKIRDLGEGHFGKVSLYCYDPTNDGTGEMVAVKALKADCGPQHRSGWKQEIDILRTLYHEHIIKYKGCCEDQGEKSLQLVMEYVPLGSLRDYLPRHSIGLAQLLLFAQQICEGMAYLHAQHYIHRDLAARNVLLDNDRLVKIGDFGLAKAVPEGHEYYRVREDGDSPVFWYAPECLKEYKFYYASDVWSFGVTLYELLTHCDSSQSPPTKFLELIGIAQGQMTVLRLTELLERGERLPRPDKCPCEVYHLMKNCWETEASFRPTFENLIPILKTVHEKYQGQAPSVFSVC

Row | GI50 [1] [nM] | fraction unbound at 5 h [2] | IC50 (TYK2-JH2 domain) [nM] | microsomal CLint at 1 μM [3, 5] [µL/min/mg] | half-life at 1 μM [3, 6] [min] | microsomal CLint at 1 μM [3, 7] [µL/min/mg] | half-life at 1 μM [3, 8] [min] | microsomal CLint at 1 μM [3, 9] [µL/min/mg] | half-life at 1 μM [3, 10] [min] | CLint scaled at 1 μM ([4]; read-out: Human hepatocyte Clint(liver)) [mL/min/kg] | half-life at 1 μM [4] [min] | IC50 (pSTAT1) [nM] | JAK1/TYK2 selectivity (TYK2-JH2 domain) | IC50 (JAK1-JH2 domain) [nM] | Compound
1 | 172 | 0.061 |  |  |  |  |  |  |  |  |  |  |  |  | CNC(=O)c1cnc(NC(=O)C2CC2)nc1Nc1cccc(-c2ncn(C)n2)c1OC [Example 65, 2-(Cyclopropanecarboxamido)-4-((2-methoxy-3-(1-methyl-1H-1,2,4-triazol-3-yl)phenyl)amino)-N-methylpyrimidine-5-carboxamide]
2 | 181 | 0.041 | 0.525 |  |  |  |  |  |  |  |  |  |  |  | [2H]C([2H])([2H])NC(=O)c1cnc(NC(=O)C2CC2)cc1Nc1csc2ncn(CC)c(=O)c12 [Example 216, 6-(Cyclopropanecarboxamido)-4-((3-ethyl-4-oxo-3,4-dihydrothieno[2,3-d]pyrimidin-5-yl)amino)-N-(methyl-d3)nicotinamide]
3 | 351 | 0.171 |  | 16.7 | 83 |  |  |  |  |  |  |  |  |  | [2H]C([2H])([2H])NC(=O)c1cnc(NC(=O)C2CC2)cc1Nc1nn(CCCOC)c2ccn(CC(F)(F)F)c(=O)c12 [Example 96, 6-(Cyclopropanecarboxamido)-4-((1-(3-methoxypropyl)-4-oxo-5-(2,2,2-trifluoroethyl)-4,5-dihydro-1H-pyrazolo[4,3-c]pyridin-3-yl)amino)-N-(methyl-d3)nicotinamide]
4 | 68.4 | 0.039 | 0.948 | 15.2 | 91.2 | < 7.4 | > 186 | 26.4 | 52.5 |  |  |  |  |  | [2H]C([2H])([2H])NC(=O)c1cnc(NC(=O)C2CC2)cc1Nc1cn(C)c2c(F)cn(CC(F)F)c(=O)c12 [Example 158, 6-(Cyclopropanecarboxamido)-4-((5-(2,2-difluoroethyl)-7-fluoro-1-methyl-4-oxo-4,5-dihydro-1H-pyrrolo[3,2-c]pyridin-3-yl)amino)-N-(methyl-d3)nicotinamide]
5 | 127 | 0.041 |  | 8.05 | 172 | 11.1 | 125 | 30.8 | 45 |  |  |  |  |  | CNC(=O)c1cnc(NC(=O)C2CC2)cc1Nc1nn(C)c2ccn(CC(F)(F)F)c(=O)c12 [Example 52, 6-(Cyclopropanecarboxamido)-N-methyl-4-((1-methyl-4-oxo-5-(2,2,2-trifluoroethyl)-4,5-dihydro-1H-pyrazolo[4,3-c]pyridin-3-yl)amino)nicotinamide]
6 | 77.7 |  | 0.46 | 63.5 | 21.8 | 46.8 | 29.6 | 66.3 | 20.9 | 9.1 | 194 | 1860 | 28.5 | 13.1 | [2H]C([2H])([2H])NC(=O)c1cnc(Nc2ccn(C)n2)cc1Nc1cc(F)c2cnn(CC)c2c1OC [Example 151, 4-((1-Ethyl-4-fluoro-7-methoxy-1H-indazol-6-yl)amino)-N-(methyl-d3)-6-((1-methyl-1H-pyrazol-3-yl)amino)nicotinamide]
7 | 27.9 |  | 0.171 | 42.4 | 32.7 | 478 | 2.9 | 54.1 | 25.6 |  | > 240 | 78.5 | 62.6 | 10.7 | [2H]C([2H])([2H])NC(=O)c1cnc(Nc2cc(C)nc(C)n2)cc1Nc1cc(F)c2cnn(CC)c2c1OC [Example 152, 6-((2,6-Dimethylpyrimidin-4-yl)amino)-4-((1-ethyl-4-fluoro-7-methoxy-1H-indazol-6-yl)amino)-N-(methyl-d3)nicotinamide]
8 | 144 | 0.286 | 0.293 |  |  |  |  |  |  |  |  |  |  |  | [2H]C([2H])([2H])NC(=O)c1cnc(NC(=O)C2CC2)cc1Nc1nn(C)c2ccn(CC(F)(F)F)c(=O)c12 [Example 53, 6-(Cyclopropanecarboxamido)-N-(methyl-d3)-4-((1-methyl-4-oxo-5-(2,2,2-trifluoroethyl)-4,5-dihydro-1H-pyrazolo[4,3-c]pyridin-3-yl)amino)nicotinamide]
9 | 69.5 |  | 0.265 |  |  |  |  |  |  |  |  | 256 | 40.8 | 10.8 | [2H]C([2H])([2H])NC(=O)c1cnc(NC(=O)[C@@H]2C[C@@H]2F)cc1Nc1ccc2cnn(CC)c2c1OC (relative stereo) [Example 256, 4-((1-Ethyl-7-methoxy-1H-indazol-6-yl)amino)-6-(cis-2-fluorocyclopropanecarboxamido)-N-(methyl-d3)nicotinamide]
10 | 75.7 |  | 0.156 |  |  |  |  |  |  |  |  | 287 | 75.9 | 11.8 | C=CCn1cc(Nc2cc(NC(=O)C3CC3)ncc2C(=O)NC)c2c(=O)n(CC)ccc21 [Example 246, 4-((1-Allyl-5-ethyl-4-oxo-4,5-dihydro-1H-pyrrolo[3,2-c]pyridin-3-yl)amino)-6-(cyclopropanecarboxamido)-N-methylnicotinamide]

From patent US20250115597A1, “TYK2 INHIBITORS AND COMPOSITIONS AND METHODS THEREOF” (LYNK PHARMACEUTICALS CO. LTD., priority 2021, published 2025)
